Source: patent publication US20230219969A1 (priority 2020, published 2023)
Where two headings read alike, the source gives them in different places.

Key:
5HT2A [1] = target: T1, 5HT2A (Homo sapiens, UniProt P28223); experiment: Serotonin 5-HT2A in vitro radioligand binding competition assay ([3H]-DOI); design: purchased Epics Therapeutics S.A. (Belgium) FAST-0505B
Experimental: Serotonin 5-HT2A In Vitro Radioligand Binding Competition Assay. The 5-HT2A radioligand binding competition assay was performed at Epics Therapeutics S.A. (Belgium, FAST-0505B) using conventional methods. Briefly, competition binding is performed in duplicate in the wells of a 96 well plate (Master Block, Greiner, 786201) containing binding buffer (optimized for each receptor), membrane extracts (amount of protein/well optimized for each receptor), radiotracer [^3H]-DOI (final concentration optimized for each receptor) and test compound. Nonspecific binding is determined by co-incubation with 200-fold excess of cold competitor. The samples are incubated in a final volume of 0.1 ml at a temperature and for a duration optimized for each receptor and then filtered over filter plates. Filters are washed six times with 0.5 ml of ice-cold washing buffer (optimized for each receptor) and 50 μl of Microscint 20 (Packard) are added in each well. The plates are incubated 15 min on an orbital shaker and then counted with a TopCount™ for 1 min/well.
(§1) The compounds provided herein were tested in the Serotonin 5-HT2A and 5-HT2C in vitro radioligand binding and cellular IPOne agonism assays. The binding and agonism functional potencies of several compound provided herein compounds (as indicated by their IC50s or EC50s) are shown in Table 11.

5HT2A [2] = target: T1, 5HT2A; experiment: Serotonin 5-HT2A in vitro cellular IPOne agonism assay; format: cell-based; design: host or cells: CHO-K1
Experimental: Serotonin 5-HT2A In Vitro Cellular IPOne Agonism Assay. The 5-HT2A IPOne HTRF assay was performed at Epics Therapeutics S.A. (Belgium, FAST-0505I) using conventional methods. Briefly, CHO-K1 cells expressing human recombinant 5-HT2A receptor grown to mid-log phase in culture media without antibiotics were detached with PBS-EDTA, centrifuged, and resuspended in medium without antibiotics buffer. 20,000 cells are distributed in a 96 well plate and incubated overnight at 37° C. with 5% CO2.
For agonist testing, the medium is removed and 20 μl of assay buffer plus 20 μl of test compound or reference agonist are added in each well. The plate is incubated for 60 min. at 37° C. with 5% CO2.
After addition of the lysis buffer containing IP1-d2 and anti-IP1 cryptate detection reagents, plates are incubated 1-hour at room temperature, and fluorescence ratios are measured according to the manufacturer specification, with the HTRF kit.
as §1

Rat cortical neurons = experiment: Neurite Outgrowth in Primary Neuronal Cultures Assay (Procedure B); format: cell-based; design: key: A: Statistically significant mean increase as a percent of DMSO control at 10 μM or less; B: No statistically significant mean increase as a percent of DMSO control at 10 μM or less; settings: 72 h, percent of DMSO control at 10 μM or less
Excerpt: Neurite Outgrowth in Primary Neuronal Cultures Assay (Procedure B). Changes in the pattern of neurite outgrowth have been implicated in psychiatric and neurodegenerative disorders as well as traumatic injuries. The discovery of new compounds that can positively affect neuritogenesis are important for developing new therapeutics for neurological diseases. Measurement of neurite outgrowth of rat cortical neurons using an automated image-based assay was used to determine the neuroplastic effects of the compounds of the present invention. The neurite outgrowth assay was performed at Neurofit SAS (France) as described below.
Pregnant Wistar rats (Janvier; France) were used for the study. They were delivered 6 days before their use. Upon arrival at Neurofit animal facility, they were housed one per cage and maintained in a room with controlled temperature (21-22° C.) and a reversed light-dark cycle (12 h/12 h; lights on: 17:30-05:30; lights off: 05:30-17:30) with food and water available ad libitum.
Female Wistar rats of 17 days gestation were killed by cervical dislocation and the fetuses were removed from the uterus. Their brains were placed in ice-cold medium of Leibovitz (L15, Gibco, Fisher bioblock, France). Cortices were dissected and meninges were carefully removed. The cortical neurons were dissociated by trypsinization for 30 min at 37° C. (trypsin-EDTA, Gibco) in presence of 0.1 mg/ml DNAse I (Roche, France). The reaction was stopped by addition of Dulbecco's Modified Eagle Medium (DMEM; Gibco) with 10% of fetal bovine serum (FBS; Gibco). The suspension was triturated with a 10-ml pipette and using a needle syringe 21G and centrifuged at 350×g for 10 min at room temperature. The pellet of dissociated cells was resuspended in a medium consisting of Neurobasal (Gibco) supplemented with 2% B27 supplement (Gibco), 0.5 mM L-Glutamine (Gibco), an antibiotic-antimicotic mixture. Viable cells were counted in a Neubauer cytometer using the trypan blue exclusion test (Sigma). Cells were seeded at a density of 10000 cells per well in 96-well plate (Costar) precoated with poly-L-lysine. Test compound at different concentrations were added to the cultures. Donepezil (positive control) was tested at 250 nM.
After 72 h (3 days) of plating, cultures were fixed with paraformaldehyde in PBS (4%, Sigma) for 30 min at 4° C. Then, cells were successively permeabilized with 0.1% Triton X100 for 30 min, saturated with PBS containing 3% of BSA and were incubated 1 h with anti-beta III tubulin antibody (Sigma) at 1/10 000 in PBS containing 0.5% of BSA. Cells were washed three times with PBS containing 0.5% of BSA, and they were incubated 1 h with goat anti-mouse antibody coupled with AF488 (Invitrogen A11001) diluted at 1/1000 in PBS containing 0.5% of BSA. Finally, nuclei were staining with DAPI 1 mg/ml at 1/1000 in PBS containing 0.5% of BSA. After rinsing with PBS, the plate was filmed and neurite networks were examined and analyzed using High-Content Screening (CellInsight, Thermo Scientific). The average number of neurites per neuron and the average total length of neurites per neuron were the main parameters analyzed. Analysis of data was performed using analysis of variance (ANOVA). The Fisher's Protected Least Significant Difference test was used for multiple comparisons. A p value<0.05 was considered significant. The software used is StatView 5.0 from SAS Institut.
In some embodiments, a compound of the present invention increases the pattern of neurite outgrowth. In some embodiments, a compound of the present invention increases neurite average length compared to a control. In some embodiments, a compound of the present invention increases neurite branch points compared to a control.

5HT2A [3] = format: cell-based; settings: result in words
[4] = [3H]-DOI competition, membrane extracts, read-out: 5-HT2A Radioligand Binding Activity
[5] = CHO-K1 cells, IPOne HTRF, read-out: 5-HT2A IPOne Agonism Activity

T1 sequence (P28223 whole entry): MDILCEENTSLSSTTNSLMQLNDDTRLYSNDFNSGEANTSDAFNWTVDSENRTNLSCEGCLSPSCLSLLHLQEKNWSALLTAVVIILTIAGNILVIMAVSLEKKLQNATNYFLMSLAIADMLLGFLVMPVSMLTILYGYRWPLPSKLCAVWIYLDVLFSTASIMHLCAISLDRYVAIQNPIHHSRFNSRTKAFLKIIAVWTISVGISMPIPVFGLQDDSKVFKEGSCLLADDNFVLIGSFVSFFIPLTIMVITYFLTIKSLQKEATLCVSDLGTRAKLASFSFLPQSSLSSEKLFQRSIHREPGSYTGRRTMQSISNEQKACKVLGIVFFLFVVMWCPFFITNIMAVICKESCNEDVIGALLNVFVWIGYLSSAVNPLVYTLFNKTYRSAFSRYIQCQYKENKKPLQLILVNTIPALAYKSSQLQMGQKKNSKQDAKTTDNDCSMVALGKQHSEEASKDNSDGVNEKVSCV

Compound | IC50 (5HT2A [1]; [4]) | EC50 (5HT2A [2]; [5]) | Increase in Neurite Length (Rat cortical neurons) | Increase in Neurite Number (Rat cortical neurons) | activation of 5HT2A sensor assay in agonist mode (5HT2A [3]) | IC50 (5HT2A [1]) | EC50 (5HT2A [2])
COc1ccc2c(c1)CCCN2CCN(C)C [Example 9, 2-(6-methoxy-3,4-dihydroquinolin-1(2H)-yl)-N,N-dimethylethan-1-amine] | 0.101 to 1 µM | > 10 µM | B | B |  |  | 
COc1ccc2c(ccn2C[C@@H](C)N(C)C)n1 [Example 30, (R)-1-(5-methoxy-1H-pyrrolo[3,2-b]pyridin-1-yl)-N,N-dimethylpropan-2-amine] | > 10 µM | > 10 µM | A | A |  |  | 
COc1cc(CC(C)N)c(OC)cc1I (stereo not drawn) [DOI] |  |  |  |  | activate the 5HT2A sensor assay in agonist mode |  | 
COc1ccc2c(ccn2C[C@@H](C)N)n1 [Example 28, (R)-1-(5-methoxy-1H-pyrrolo[3,2-b]pyridin-1-yl)propan-2-amine] | > 10 µM | > 10 µM | A | B |  |  | 
COc1cc2ccn(C[C@@H](C)N(C)C)c2cn1 [Example 33, (R)-1-(5-methoxy-1H-pyrrolo[2,3-c]pyridin-1-yl)-N,N-dimethylpropan-2-amine] | > 10 µM | > 10 µM | A | B |  |  | 
C[C@H](Cn1ccc2cncnc21)N(C)C [Example 27, (R)—N,N-dimethyl-1-(7H-pyrrolo[2,3-d]pyrimidin-7-yl)propan-2-amine] | > 10 µM | > 10 µM | A | B |  |  | 
O=C(c1ccc(F)cc1)C1CCN(CCn2c(=O)[nH]c3ccccc3c2=O)CC1 [Ketanserin] |  |  |  |  | do not activate the 5HT2A sensor assay in agonist mode |  | 
CN[C@H](C)Cn1ccc2cc(OC)ncc21 [Example 32, (R)-1-(5-methoxy-1H-pyrrolo[2,3-c]pyridin-1-yl)-N-methylpropan-2-amine] | > 10 µM | > 10 µM | B | B |  |  | 
COc1ccc2c(ccn2[C@H]2C[C@@H](N(C)C)C2)c1 [Example 24, (1s,3s)-3-(5-methoxy-1H-indol-1-yl)-N,N-dimethylcyclobutan-1-amine] | > 10 µM | > 10 µM | A | B |  |  | 
COc1ccc2c(ccn2C(=O)[C@@H](C)N(C)C)c1 [Example 47, (R)-2-(dimethylamino)-1-(5-methoxy-1H-indol-1-yl)propan-1-one] |  |  | B | B |  | > 10 µM | > 10 µM
COc1ccc2c(ccn2CC2(N(C)C)CC2)c1 [Example 2, 1-((5-methoxy-1H-indol-1-yl)methyl)-N,N-dimethylcyclopropan-1-amine] | > 10 µM | > 10 µM | B | B |  |  | 
COc1cnc2c(ccn2C[C@@H](C)N(C)C)c1 [Example 36, (R)-1-(5-methoxy-1H-pyrrolo[2,3-b]pyridin-1-yl)-N,N-dimethylpropan-2-amine] | > 10 µM | > 10 µM | B | B |  |  | 
CN[C@H](C)Cn1ccc2nc(OC)ccc21 [Example 29, (R)-1-(5-methoxy-1H-pyrrolo[3,2-b]pyridin-1-yl)-N-methylpropan-2-amine] | > 10 µM | > 10 µM | A | B |  |  | 
COc1ccc2c(ccn2CC(C)(C)N(C)C)c1 [Example 1, 1-(5-methoxy-1H-indol-1-yl)-N,N,2-trimethylpropan-2-amine] | > 10 µM | > 10 µM | A | A |  |  | 
C[C@H](Cn1ccc2cnccc21)N(C)C [Example 39, (R)—N,N-dimethyl-1-(1H-pyrrolo[3,2-c]pyridin-1-yl)propan-2-amine] | > 10 µM | > 10 µM | B | B |  |  | 
COc1ccc2c(ccn2[C@H]2C[C@H](N(C)C)C2)c1 [Example 25, (1r,3r)-3-(5-methoxy-1H-indol-1-yl)-N,N-dimethylcyclobutan-1-amine] | > 10 µM | > 10 µM | A | B |  |  | 
COc1ccc2c(ccn2C(=O)CN(C)C)c1 [Example 45, 2-(dimethylamino)-1-(5-methoxy-1H-indol-1-yl)ethan-1-one] | > 10 µM | > 10 µM | B | B |  |  | 
COc1cc2ccn(C[C@@H](C)N)c2cn1 [Example 31, (R)-1-(5-methoxy-1H-pyrrolo[2,3-c]pyridin-1-yl)propan-2-amine] | 1 to 10 µM | 1 to 10 µM | B | B |  |  | 
